Tests used:
Assay type in all cases: in vivo
rice (Oryza sativa) = assay: Test B flooded paddy test rice; details: Oryza sativa, Table B, Flood, 250 g ai/ha, scale 0 to 100, read-out: Plant response rating
How it was run: (§1)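 2-leaf plants; flood 3 cm over soil; cpd into paddy water; water depth kept; greenhouse 13–15 d; visual rating vs controls.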

[1] = system: pigweed (Amaranthus retroflexus); assay: Test A postemergence pigweed; details: Amaranthus retroflexus, post-emergence, 240 h, 0 to 100 scale, 0 is no effect, 100 is complete control, read-out: Plant response rating, Pigweed; for pest or weed control at 125 g/ha: 125 g ai/ha; for pest or weed control at 500 g/ha: 500 g ai/ha
How it was run: (§2)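 Visual injury rating, 0–100 scale (0 = no effect, 100 = complete control), versus untreated controls ~10 d after treatment in greenhouse. Pre: directed soil spray onto seeded loam/sand. Post: foliar spray at 2–10 cm, 1–2 leaf stage. Solvent-surfactant formulation.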

[2] = system: galium (catchweed bedstraw, Galium aparine); assay: Test A postemergence galium; details: Galium, post-emergence, 240 h, 0 to 100 scale, 0 is no effect, 100 is complete control, read-out: Plant response rating, Galium; for pest or weed control at 125 g/ha: 125 g ai/ha; for pest or weed control at 500 g/ha: 500 g ai/ha
How it was run: as §2

kochia (Kochia scoparia) [3] = assay: Test A postemergence kochia; details: Bassia scoparia, post-emergence, 240 h, 0 to 100 scale, 0 is no effect, 100 is complete control, read-out: Plant response rating, Kochia; for pest or weed control at 125 g/ha: 125 g ai/ha; for pest or weed control at 500 g/ha: 500 g ai/ha
How it was run: as §2

[4] = system: blackgrass (Alopecurus myosuroides); assay: Test A postemergence blackgrass; details: Alopecurus myosuroides, post-emergence, 240 h, 0 to 100 scale, 0 is no effect, 100 is complete control, read-out: Plant response rating, Blackgrass; for pest or weed control at 125 g/ha: 125 g ai/ha; for pest or weed control at 500 g/ha: 500 g ai/ha
How it was run: as §2

[5] = system: foxtail, giant (giant foxtail, Setaria faberii); assay: Test A preemergence foxtail, giant; details: Setaria faberi, pre-emergence, 240 h, 0 to 100 scale, 0 no effect, 100 complete control, read-out: Foxtail, Giant plant response rating; for pest or weed control at 125 g/ha: 125 g ai/ha; for pest or weed control at 500 g/ha: 500 g ai/ha
How it was run: as §2

[6] = system: barnyardgrass (Echinochloa crus-galli); assay: Test A preemergence barnyardgrass; details: Echinochloa crus-galli, pre-emergence, 240 h, 0 to 100 scale, 0 no effect, 100 complete control, read-out: Barnyardgrass plant response rating; for pest or weed control at 125 g/ha: 125 g ai/ha; for pest or weed control at 500 g/ha: 500 g ai/ha
How it was run: as §2

[7] = system: pigweed (Amaranthus retroflexus); assay: Test A preemergence pigweed; details: Amaranthus retroflexus, pre-emergence, 240 h, 0 to 100 scale, 0 no effect, 100 complete control, read-out: Pigweed plant response rating; for pest or weed control at 125 g/ha: 125 g ai/ha; for pest or weed control at 500 g/ha: 500 g ai/ha
How it was run: as §2

[8] = system: foxtail, giant (giant foxtail, Setaria faberii); assay: Test A postemergence foxtail, giant; details: Setaria faberi, post-emergence, 240 h, 0 to 100 scale, 0 is no effect, 100 is complete control, read-out: Plant response rating, Foxtail, Giant; for pest or weed control at 125 g/ha: 125 g ai/ha; for pest or weed control at 500 g/ha: 500 g ai/ha
How it was run: as §2

[9] = system: ducksalad (Heteranthera limosa); assay: Test B flooded paddy test ducksalad; details: Heteranthera limosa, Table B, Flood, 250 g ai/ha, scale 0 to 100, read-out: Plant response rating
How it was run: as §1

[10] = system: ragweed (common ragweed, Ambrosia elatior); assay: Test A postemergence ragweed; details: Ambrosia artemisiifolia, post-emergence, 240 h, 0 to 100 scale, 0 is no effect, 100 is complete control, read-out: Plant response rating, Ragweed; for pest or weed control at 125 g/ha: 125 g ai/ha; for pest or weed control at 500 g/ha: 500 g ai/ha
How it was run: as §2

[11] = system: sedge, umbrella (small-flower umbrella sedge, Cyperus difformis); assay: Test B flooded paddy test sedge, umbrella; details: Cyperus difformis, Table B, Flood, 250 g ai/ha, scale 0 to 100, read-out: Plant response rating
How it was run: as §1

[12] = system: barnyardgrass (Echinochloa crus-galli); assay: Test B flooded paddy test barnyardgrass; details: Echinochloa crus-galli, Table B, Flood, 250 g ai/ha, scale 0 to 100, read-out: Plant response rating
How it was run: as §1

[13] = system: ragweed (common ragweed, Ambrosia elatior); assay: Test A preemergence ragweed; details: Ambrosia artemisiifolia, pre-emergence, 240 h, 0 to 100 scale, 0 no effect, 100 complete control, read-out: Ragweed plant response rating; for pest or weed control at 125 g/ha: 125 g ai/ha; for pest or weed control at 500 g/ha: 500 g ai/ha
How it was run: as §2

[14] = system: wheat (Triticum aestivum); assay: Test A postemergence wheat; details: Triticum aestivum, post-emergence, 240 h, 0 to 100 scale, 0 is no effect, 100 is complete control, read-out: Plant response rating, Wheat; for plant injury at 125 g/ha: 125 g ai/ha; for plant injury at 500 g/ha: 500 g ai/ha
How it was run: as §2

[15] = system: ryegrass, Italian (Italian ryegrass, Lolium multiflorum); assay: Test A postemergence ryegrass, Italian; details: Lolium multiflorum, post-emergence, 240 h, 0 to 100 scale, 0 is no effect, 100 is complete control, read-out: Plant response rating, Ryegrass, Italian; for pest or weed control at 125 g/ha: 125 g ai/ha; for pest or weed control at 500 g/ha: 500 g ai/ha
How it was run: as §2

corn (Zea mays) = assay: Test A postemergence corn; details: Zea mays, post-emergence, 240 h, 0 to 100 scale, 0 is no effect, 100 is complete control; for Corn plant response rating (crop injury, 0 = no effect, 100 = complete kill) at 125 g/ha: 125 g ai/ha; for Corn plant response rating (crop injury, 0 = no effect, 100 = complete kill) at 500 g/ha: 500 g ai/ha
How it was run: as §2

[16] = system: barnyardgrass (Echinochloa crus-galli); assay: Test A postemergence barnyardgrass; details: Echinochloa crus-galli, post-emergence, 240 h, 0 to 100 scale, 0 is no effect, 100 is complete control, read-out: Plant response rating, Barnyardgrass; for pest or weed control at 125 g/ha: 125 g ai/ha; for pest or weed control at 500 g/ha: 500 g ai/ha
How it was run: as §2

kochia (Kochia scoparia) [17] = assay: Test A preemergence kochia; details: Bassia scoparia, pre-emergence, 240 h, 0 to 100 scale, 0 no effect, 100 complete control, read-out: Kochia plant response rating; for pest or weed control at 125 g/ha: 125 g ai/ha; for pest or weed control at 500 g/ha: 500 g ai/ha
How it was run: as §2

[18] = system: ryegrass, Italian (Italian ryegrass, Lolium multiflorum); assay: Test A preemergence ryegrass, Italian; details: Lolium multiflorum, pre-emergence, 240 h, 0 to 100 scale, 0 no effect, 100 complete control, read-out: Ryegrass, Italian plant response rating; for pest or weed control at 125 g/ha: 125 g ai/ha; for pest or weed control at 500 g/ha: 500 g ai/ha
How it was run: as §2

O=C1NCC[C@H](c2ccc(C(F)(F)F)cc2)[C@H]1C(=O)Nc1cccc(F)c1F [Compound 22, (3R,4S)—N-(2,3-difluorophenyl)-2-oxo-4-[4-(trifluoromethyl)phenyl]-3-piperidinecarboxamide]
plant injury at 250 g/ha (rice (Oryza sativa)): 0%
pest or weed control at 125 g/ha [1]: 40%
pest or weed control at 500 g/ha [1]: 50%
pest or weed control at 125 g/ha [2]: 50%
pest or weed control at 500 g/ha [2]: 70%
pest or weed control at 125 g/ha (kochia (Kochia scoparia) [3]): 40%
pest or weed control at 500 g/ha (kochia (Kochia scoparia) [3]): 60%
pest or weed control at 125 g/ha [4]: 50%
pest or weed control at 500 g/ha [4]: 60%
pest or weed control at 125 g/ha [5]: 90%
pest or weed control at 500 g/ha [5]: 90%
pest or weed control at 125 g/ha [6]: 90%
pest or weed control at 500 g/ha [6]: 90%
pest or weed control at 125 g/ha [7]: 20%
pest or weed control at 500 g/ha [7]: 50%
pest or weed control at 125 g/ha [8]: 90%
pest or weed control at 500 g/ha [8]: 90%
pest or weed control at 250 g/ha [9]: 100%
pest or weed control at 125 g/ha [10]: 50%
pest or weed control at 500 g/ha [10]: 50%
pest or weed control at 250 g/ha [11]: 0%
pest or weed control at 250 g/ha [12]: 65%
pest or weed control at 125 g/ha [13]: 60%
pest or weed control at 500 g/ha [13]: 80%
plant injury at 125 g/ha [14]: 0%
plant injury at 500 g/ha [14]: 60%
pest or weed control at 125 g/ha [15]: 40%
pest or weed control at 500 g/ha [15]: 70%
Corn plant response rating (crop injury, 0 = no effect, 100 = complete kill) at 125 g/ha (corn (Zea mays)): 0%
Corn plant response rating (crop injury, 0 = no effect, 100 = complete kill) at 500 g/ha (corn (Zea mays)): 60%
pest or weed control at 125 g/ha [16]: 80%
pest or weed control at 500 g/ha [16]: 90%
pest or weed control at 125 g/ha (kochia (Kochia scoparia) [17]): 70%
pest or weed control at 500 g/ha (kochia (Kochia scoparia) [17]): 80%
pest or weed control at 125 g/ha [18]: 20%
pest or weed control at 500 g/ha [18]: 60%

O=C1NCC[C@H](c2ccc(F)cc2)[C@H]1C(=O)Nc1ccccc1C(F)(F)F [Compound 57, (3R,4S)-4-(4-fluorophenyl)-2-oxo-N-[2-(trifluoromethyl)phenyl]-3-piperidinecarboxamide]
plant injury at 250 g/ha (rice (Oryza sativa)): 0%
pest or weed control at 125 g/ha [1]: 0%
pest or weed control at 500 g/ha [1]: 0%
pest or weed control at 125 g/ha [2]: 0%
pest or weed control at 500 g/ha [2]: 0%
pest or weed control at 125 g/ha (kochia (Kochia scoparia) [3]): 0%
pest or weed control at 500 g/ha (kochia (Kochia scoparia) [3]): 0%
pest or weed control at 125 g/ha [4]: 0%
pest or weed control at 500 g/ha [4]: 0%
pest or weed control at 125 g/ha [5]: 60%
pest or weed control at 500 g/ha [5]: 90%
pest or weed control at 125 g/ha [6]: 30%
pest or weed control at 500 g/ha [6]: 70%
pest or weed control at 125 g/ha [7]: 0%
pest or weed control at 500 g/ha [7]: 0%
pest or weed control at 125 g/ha [8]: 0%
pest or weed control at 500 g/ha [8]: 60%
pest or weed control at 250 g/ha [9]: 40%
pest or weed control at 125 g/ha [10]: 0%
pest or weed control at 500 g/ha [10]: 0%
pest or weed control at 250 g/ha [11]: 0%
pest or weed control at 250 g/ha [12]: 0%
pest or weed control at 125 g/ha [13]: 0%
pest or weed control at 500 g/ha [13]: 0%
plant injury at 125 g/ha [14]: 0%
plant injury at 500 g/ha [14]: 0%
pest or weed control at 125 g/ha [15]: 0%
pest or weed control at 500 g/ha [15]: 0%
Corn plant response rating (crop injury, 0 = no effect, 100 = complete kill) at 125 g/ha (corn (Zea mays)): 0%
Corn plant response rating (crop injury, 0 = no effect, 100 = complete kill) at 500 g/ha (corn (Zea mays)): 0%
pest or weed control at 125 g/ha [16]: 0%
pest or weed control at 500 g/ha [16]: 70%
pest or weed control at 125 g/ha (kochia (Kochia scoparia) [17]): 0%
pest or weed control at 500 g/ha (kochia (Kochia scoparia) [17]): 0%
pest or weed control at 125 g/ha [18]: 0%
pest or weed control at 500 g/ha [18]: 0%

From patent US9944602B2, “Piperidinone herbicides” (E. I. DU PONT DE NEMOURS AND COMPANY, priority 2014, dated 2018)
